{"source": "patent US10538742B2", "about": "“Methods and means related to cancer stem cells” (Cambridge Enterprise Limited, priority 2004, dated 2020)", "key": {"MCF-7 cells": {"system": "MCF-7 cells", "test": "Treatment of MCF-7 cells with gamma secretase inhibitor, SP quantitated", "assay_type": "cell-based, human", "conditions": "10 uM reserpine during SP analysis", "experimental": "FIG. 10A-10D illustrates the results of a screen for anti-cancer stem cell activity using the MCF-7 cancer cell line. MCF-7 cells were incubated with 1 uM gamma secretase inhibitor (Calbiochem, San Diego, catalog number 565750) for 7 days (B, D). Control cells were cultured without a gamma secretase inhibitor (A, C). Following drug treatment, cells were washed, and then the SP was analyzed as described herein, in the presence (C, D) or absence (A, B) of 10 uM reserpine. The percentage of SP cells in the culture is given for each experimental condition.\nMCF-7 cells were cultured in serum-containing media, as described above. Cells were harvested from the cultures, washed, and resuspended in gamma secretase inhibitor I. Gamma secretase inhibitor I was purchased from Calbiochem™ (San Diego, Calif.; Catalog number 565750). The gamma secretase inhibitor was added to the cultures at a final concentration of 1 uM. Cells were treated for 7 days, and the SP was quantitated as described.\nThe invention includes methods for evaluating compounds for anti-cancer stem cell activity by monitoring the SP cell population of a cancer cell line. In this experiment, MCF-7 cells were treated with a gamma secretase inhibitor, as described above. […] Therefore, gamma secretase inhibitors could affect cancer stem cells expressing the Notch protein. […]"}, "MCF7 breast cancer cells": {"system": "MCF7 breast cancer cells", "test": "SP analysis by Hoechst 33342 flow cytometry, MCF7 breast cancer cells", "assay_type": "cell-based, human", "conditions": "50 μM verapamil during Hoechst 33342 labeling", "experimental": "(§1) To identify and isolate the SP cells in the cancer cell lines, the lines were cultured as described above, in either FCS or serum-free culture medium with bFGF, PDGF, or both. The cells were removed from the culture dish with trypsin and EDTA GIBCO BRL), washed, suspended at 10^6 cells per ml in DMEM containing 2% FCS (staining medium), and preincubated in 1.5-ml Eppendorf tube at 37° C. for 10 min. The cells were then labeled in the same medium at 37° C. for 90 min with 2.5 μg/ml Hoechst 33342 dye (Molecular Probes), either alone or in combination with 50 μM verapamil (Sigma), which is an inhibitor of some (verapamil-sensitive) ABC transporters (Goodell, M. A. (1996) J. Exp. Med. 183 1797-1806.). Finally, the cells were counterstained with 1 μg/ml propidium iodide to label dead cells. Then, 3-5×10^4 cells were analyzed in a FACSVantage fluorescence-activated cell sorter (Becton Dickinson) by using dual-wavelength analysis (blue, 424-444 nm; red, 675 nm) after excitation with 350-nm UV light. Propidium iodide-positive dead cells (15%) were excluded from the analysis. In the case of the C6 cell line, the SP cells or non-SP cells were sorted and cultured in serum-free culture medium with bFGF and PDGF.\n(§2) They were then analyzed by flow cytometry. […] No SP cells were detected in the two human osteosarcoma lines (U-20S and SaOS-2)."}, "HeLa carcinoma cells": {"system": "HeLa carcinoma cells", "test": "SP analysis by Hoechst 33342 flow cytometry, HeLa carcinoma cells", "assay_type": "cell-based, human", "conditions": "50 μM verapamil during Hoechst 33342 labeling", "experimental": "as §1, §2"}, "C6 glioma cells": {"system": "C6 glioma cells", "test": "SP analysis by Hoechst 33342 flow cytometry, C6 glioma cells", "assay_type": "cell-based, rat", "conditions": "50 μM verapamil during Hoechst 33342 labeling", "experimental": "as §1, §2"}, "B104 neuroblastoma cells": {"system": "B104 neuroblastoma cells", "test": "SP analysis by Hoechst 33342 flow cytometry, B104 neuroblastoma cells", "assay_type": "cell-based, rat", "conditions": "50 μM verapamil during Hoechst 33342 labeling", "experimental": "as §1, §2"}, "C6 cells": {"system": "C6 cells", "test": "C6 SP cell expansion in serum-free medium with bFGF and PDGF", "assay_type": "cell-based, rat", "conditions": "10 ng/ml growth factor, up to 3 weeks", "experimental": "(§3) The cells were cultured in DMEM, supplemented with 10% FCS, 100 units/ml penicillin G, and 100 μg/ml streptomycin (GIBCO). In some experiments, C6 cells were cultured in serum-free DMEM containing 10 μg/ml bovine insulin, 100 μg/ml human transferrin, 100 μg/ml BSA, 60 ng/ml progesterone, 16 μg/ml putrescine, 40 ng/ml sodium selenite, 63 μg/ml N-acetylcysteine, 5 μM forskolin, 50 units/ml penicillin, and 50 μg/ml streptomycin (GIBCO), as well as one or both of 10 ng/ml bFGF and 10 ng/ml PDGF, or one or both of bFGF (10 ng/ml) and EGF (10 ng/ml).\nTo identify and isolate the SP cells in the cancer cell lines, the lines were cultured as described above, in either FCS or serum-free culture medium with bFGF, PDGF, or both. […] Then, 3-5×10^4 cells were analyzed in a FACSVantage fluorescence-activated cell sorter (Becton Dickinson) by using dual-wavelength analysis (blue, 424-444 nm; red, 675 nm) after excitation with 350-nm UV light. […]\nThe cells were stained with Hoechst 33342 and analyzed by flow cytometry. […]\nTo investigate the individual roles of PDGF and bFGF in expanding C6 SP cells, C6 cells were cultured in either bFGF or PDGF for 2 weeks and then in bFGF plus PDGF for an additional 2 weeks. The cells were then stained with Hoechst 33342 and analyzed by flow cytometry. […]"}, "MCF7 cells": {"system": "MCF7 cells", "test": "MCF7 SP cell expansion in serum-free medium with growth factors", "assay_type": "cell-based, human", "conditions": "growth factor 10 ng/ml, 7 days, in FCS less than 0.8%", "experimental": "The cells were cultured in FCS (A) or serum-free medium with bFGF (B), EGF (C), or both (D) for 7 days and were analyzed by flow cytometry. The SP is outlined and shown as a % of the total cell population.\nas §3\nMCF7 Cell Expansion MCF7 cells were cultured in 10% FCS (FIG. 7A) or in serum-free culture medium with bFGF (FIG. 7B), EGF (FIG. 7C), or both (FIG. 7D) for 7 days. […] Cells were stained with Hoechst dye and analyzed by flow cytometry. When cultured in FCS, less than 0.8% of the cells are SP cells. By contrast, when cultured in serum-free medium with bFGF, EGF or both, 5.1%, 3.5%, or 6.2% of the cells, respectively, are SP cells."}}, "data": [{"compound": "COC(=O)[C@H]1[C@H]2C[C@@H]3c4[nH]c5cc(OC)ccc5c4CCN3C[C@H]2C[C@@H](OC(=O)c2cc(OC)c(OC)c(OC)c2)[C@@H]1OC", "note": "[reserpine]", "values": [{"measurement": "SP in the presence of reserpine", "setting": "MCF-7 cells", "value": "no SP is visible"}]}, {"compound": "COc1ccc(CCN(C)CCCC(C#N)(c2ccc(OC)c(OC)c2)C(C)C)cc1OC", "note": "(stereo not drawn) [verapamil]", "values": [{"measurement": "SP (side population) on treatment with verapamil", "setting": "MCF7 breast cancer cells", "value": "decreased greatly"}, {"measurement": "SP (side population) on treatment with verapamil", "setting": "HeLa carcinoma cells", "value": "decreased greatly"}, {"measurement": "SP (side population) on treatment with verapamil", "setting": "C6 glioma cells", "value": "decreased greatly"}, {"measurement": "SP (side population) on treatment with verapamil", "setting": "B104 neuroblastoma cells", "value": "decreased greatly"}]}, {"compound": "bFGF: basic fibroblast growth factor, recombinant cytokine purchased from PeproTech", "values": [{"measurement": "SP cells maintained or detected in culture", "setting": "C6 cells", "value": "few SP cells could be detected"}, {"measurement": "% of the cells that are SP cells", "setting": "MCF7 cells", "value": 5.1, "unit": "%"}]}, {"compound": "PDGF", "values": [{"measurement": "SP cells maintained or detected in culture", "setting": "C6 cells", "value": "few SP cells could be detected"}]}, {"compound": "EGF: recombinant cytokine added to serum-free medium at 10 ng/ml", "values": [{"measurement": "% of the cells that are SP cells", "setting": "MCF7 cells", "value": 3.5, "unit": "%"}]}]}
